For assay [1], the target named is T1, Serine/threonine-protein kinase TBK1 (Homo sapiens) (UniProt Q9UHD2).
T1 sequence (whole entry): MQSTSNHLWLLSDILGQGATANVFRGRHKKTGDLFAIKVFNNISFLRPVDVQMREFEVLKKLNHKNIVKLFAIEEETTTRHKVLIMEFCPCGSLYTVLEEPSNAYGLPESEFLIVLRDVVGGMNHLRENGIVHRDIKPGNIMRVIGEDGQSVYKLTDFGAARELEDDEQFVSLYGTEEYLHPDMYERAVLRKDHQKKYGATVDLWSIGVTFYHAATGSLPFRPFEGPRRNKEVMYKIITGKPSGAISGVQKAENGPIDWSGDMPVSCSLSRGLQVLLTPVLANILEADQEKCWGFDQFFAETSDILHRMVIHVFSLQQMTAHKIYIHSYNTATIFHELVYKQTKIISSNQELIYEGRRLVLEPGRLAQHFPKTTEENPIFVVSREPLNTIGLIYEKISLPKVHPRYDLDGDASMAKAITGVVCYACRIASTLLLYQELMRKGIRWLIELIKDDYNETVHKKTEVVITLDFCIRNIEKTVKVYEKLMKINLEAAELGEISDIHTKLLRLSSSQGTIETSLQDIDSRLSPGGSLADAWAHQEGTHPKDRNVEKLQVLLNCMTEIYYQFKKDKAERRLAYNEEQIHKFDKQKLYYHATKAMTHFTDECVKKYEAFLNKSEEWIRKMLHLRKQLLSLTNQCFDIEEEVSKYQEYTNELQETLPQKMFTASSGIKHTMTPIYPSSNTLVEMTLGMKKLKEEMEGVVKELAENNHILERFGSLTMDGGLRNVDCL
As to conditions: at 10 µM.

Assay [2] has as its target Tyrosine-protein kinase SYK (Homo sapiens, UniProt P43405). In words: Selectivity interaction (Ambit KINOMEscan and KiNATiv profiling in Jurkat cells) EUB0000090b SYK. Format: cell-based. As to conditions: at 1 µM.
The target in assay [3] is Dual specificity protein kinase CLK1 (Homo sapiens, UniProt P49759). In words: Selectivity interaction (SelectScreen profiling (Invitrogen)) EUB0000607a CLK1. As to conditions: at 2 µM.
Dual specificity protein kinase CLK1, sequence (P49759 whole entry, looked up): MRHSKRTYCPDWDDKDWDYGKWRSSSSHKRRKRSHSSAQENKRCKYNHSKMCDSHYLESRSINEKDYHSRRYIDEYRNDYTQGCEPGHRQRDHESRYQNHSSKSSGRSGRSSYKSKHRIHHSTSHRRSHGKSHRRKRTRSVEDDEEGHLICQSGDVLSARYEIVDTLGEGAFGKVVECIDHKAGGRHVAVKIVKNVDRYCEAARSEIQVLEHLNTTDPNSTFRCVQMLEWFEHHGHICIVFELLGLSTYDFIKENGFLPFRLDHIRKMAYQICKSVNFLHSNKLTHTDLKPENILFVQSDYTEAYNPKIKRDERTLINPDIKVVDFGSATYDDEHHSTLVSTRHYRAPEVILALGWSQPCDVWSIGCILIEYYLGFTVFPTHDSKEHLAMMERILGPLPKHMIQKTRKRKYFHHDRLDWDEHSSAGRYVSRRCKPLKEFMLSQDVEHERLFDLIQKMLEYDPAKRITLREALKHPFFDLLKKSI
Assay [4] concerns the target T2, Serine/threonine-protein kinase Sgk3 (Homo sapiens) (UniProt Q96BR1).
T2 sequence (whole entry): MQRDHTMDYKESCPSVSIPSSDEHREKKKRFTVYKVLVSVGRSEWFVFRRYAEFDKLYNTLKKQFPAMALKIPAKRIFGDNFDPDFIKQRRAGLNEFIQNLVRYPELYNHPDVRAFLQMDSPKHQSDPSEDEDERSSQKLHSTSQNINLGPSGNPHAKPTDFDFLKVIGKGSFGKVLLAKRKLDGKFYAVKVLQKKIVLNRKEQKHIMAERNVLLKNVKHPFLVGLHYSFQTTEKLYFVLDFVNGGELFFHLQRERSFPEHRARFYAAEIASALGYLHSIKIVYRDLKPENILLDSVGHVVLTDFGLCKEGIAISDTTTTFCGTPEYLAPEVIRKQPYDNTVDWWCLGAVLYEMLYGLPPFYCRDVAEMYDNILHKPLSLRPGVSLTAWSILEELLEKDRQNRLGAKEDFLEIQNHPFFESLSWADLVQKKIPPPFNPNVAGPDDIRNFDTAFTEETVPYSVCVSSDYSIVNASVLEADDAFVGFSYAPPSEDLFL
In words: Selectivity interaction (KinomeScan (DiscoverX)) EUB0000229b SGK3. Conditions: at 10 µM.

Assay [5] deals with Tyrosine-protein kinase Fyn (Homo sapiens) (UniProt P06241). Briefly: Selectivity interaction (KinomeScan (DiscoverX)) EUB0000618a FYN. Conditions: at 10 µM.
Tyrosine-protein kinase Fyn (Homo sapiens), sequence (P06241 2-537 limits assumed): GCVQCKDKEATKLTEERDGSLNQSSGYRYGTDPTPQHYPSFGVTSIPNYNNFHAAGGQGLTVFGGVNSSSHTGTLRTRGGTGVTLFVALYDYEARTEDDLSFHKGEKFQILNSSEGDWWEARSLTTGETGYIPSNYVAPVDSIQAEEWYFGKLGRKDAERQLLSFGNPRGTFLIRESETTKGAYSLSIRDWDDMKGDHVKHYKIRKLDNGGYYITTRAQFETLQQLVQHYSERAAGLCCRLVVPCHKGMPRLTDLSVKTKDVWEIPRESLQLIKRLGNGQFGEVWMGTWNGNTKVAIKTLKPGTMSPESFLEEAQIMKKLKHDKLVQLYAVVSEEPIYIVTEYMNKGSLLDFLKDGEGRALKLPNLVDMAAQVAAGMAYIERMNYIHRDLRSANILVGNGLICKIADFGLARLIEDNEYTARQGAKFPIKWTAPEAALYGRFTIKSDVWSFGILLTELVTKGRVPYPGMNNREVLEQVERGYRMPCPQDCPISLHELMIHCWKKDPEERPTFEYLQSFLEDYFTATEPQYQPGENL
For assay [6], the target named is T3, Mitogen-activated protein kinase kinase kinase 12 (Homo sapiens) (UniProt Q12852).
T3 sequence (whole entry): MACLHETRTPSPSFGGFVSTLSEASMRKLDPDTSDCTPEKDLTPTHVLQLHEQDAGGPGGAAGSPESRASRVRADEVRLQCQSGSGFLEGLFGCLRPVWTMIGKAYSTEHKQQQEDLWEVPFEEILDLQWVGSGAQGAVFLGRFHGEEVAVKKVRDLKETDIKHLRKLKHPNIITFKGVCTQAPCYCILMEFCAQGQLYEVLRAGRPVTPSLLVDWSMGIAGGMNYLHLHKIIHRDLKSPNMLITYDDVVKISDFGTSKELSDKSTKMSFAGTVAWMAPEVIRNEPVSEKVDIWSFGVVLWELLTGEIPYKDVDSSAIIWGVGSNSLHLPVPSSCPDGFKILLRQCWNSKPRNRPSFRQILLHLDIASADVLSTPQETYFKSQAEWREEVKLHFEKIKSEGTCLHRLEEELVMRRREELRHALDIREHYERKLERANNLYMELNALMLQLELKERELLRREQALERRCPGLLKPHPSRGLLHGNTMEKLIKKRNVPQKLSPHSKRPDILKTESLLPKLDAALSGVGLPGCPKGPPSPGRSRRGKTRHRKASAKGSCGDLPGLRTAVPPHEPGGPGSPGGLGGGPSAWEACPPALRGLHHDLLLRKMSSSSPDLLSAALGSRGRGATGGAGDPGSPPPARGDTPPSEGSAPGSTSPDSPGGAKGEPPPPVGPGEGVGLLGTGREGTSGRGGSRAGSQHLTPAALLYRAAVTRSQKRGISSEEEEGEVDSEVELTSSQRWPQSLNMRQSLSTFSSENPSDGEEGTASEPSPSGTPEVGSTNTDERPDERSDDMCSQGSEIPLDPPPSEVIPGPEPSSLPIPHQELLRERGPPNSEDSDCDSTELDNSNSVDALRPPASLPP
Briefly: Selectivity interaction (KinomeScan (DiscoverX)) EUB0000618a MAP3K12. Conditions: at 10 µM.

The structures appear in SMILES notation.

In assay [1], `Cc1cc([C@@H](C)Nc2ccccc2C(=O)O)c2nc(N3CCOCC3)cc(=O)n2c1` [AZD-6482] returned a % of control of 100%.
Turning to `CN(C)C/C=C/C(=O)Nc1ccc(C(=O)N2CCCC(Nc3ncc(Cl)c(-c4c[nH]c5ccccc45)n3)C2)cc1` (stereo unspecified), the % of control in assay [2] was 86%.
Consider `CNC(=O)Nc1ccc(-c2nc(N3CC4CCC(C3)O4)c3cnn(C4CCC5(CC4)OCCO5)c3n2)cc1`, for which, in assay [3], the % of inhibition was -3%.
Consider `COc1cc(N(C)c2ccnc3ccc(C(F)(F)F)cc23)cc(OC)c1OC`, for which the % binding in assay [4] was determined as 79%.
For the compound `O[C@H]1CC[C@H](Nc2ncc3nc(Nc4c(F)cc(F)cc4F)n([C@H]4CCOC4)c3n2)CC1`, the % of control in assay [5] and in assay [6] was 100% in each case.
